According to PMC3834177 (Cancer Chemotherapy and Pharmacology, 2013):
Several values for one entry are separate records, joined by “and”; a condition that tells them apart may be missing. Identical values can stand only once. Entries after “also recorded” stand apart in the source; their conditions may differ.

Assays:
[1] = cited from earlier work
[2] = Midostaurin PK when administered with ketoconazole; conditions: for AUC(0-inf): AUC0–inf; for AUC(0-inf) / Cmax: adjusted geometric mean; for Cmax: C max; for half-life: t 1/2, adjusted geometric mean
Protocol: According to the US Food and Drug Administration, ketoconazole 400 mg once daily is the recommended dose to evaluate DDIs involving CYP3A4 inhibition. [drawing 1]
(§1) Adverse events (AEs) were recorded during the study and up to 1 month (28 days) after the end of study. Volunteers remained at the clinic until AEs were common toxicity criteria (CTC) grade ≤1.
A point estimate and the corresponding 90 % CI for the treatment effect were calculated for the test treatment compared with the reference. These were anti-logged to obtain the point estimate and the 90 % CI for the geometric mean ratio (GMR) on the untransformed scale. […] All ANOVAs were performed using SAS software (SAS Institute Inc., Cary, NC, USA).
(§2) The concentration of ketoconazole in plasma was assessed using a validated LC–MS/MS assay with an LLOQ of 50.0 ng/mL (WuXi Pharmatech Co, Ltd, China). The concentration of rifampicin in plasma was measured using a validated LC–MS/MS assay with an LLOQ of 5.0 ng/mL (SGS, Cephac Europe, SAS). Plasma concentrations of midazolam and its metabolite 1′-hydroxymidazolam, which is generated by CYP3A4 and CYP3A5 in humans, were measured using a validated LC–MS/MS assay with an LLOQ of ≈0.100 ng/mL (SGS, Cephac Europe, SAS). The plasma concentration of 4β-hydroxycholesterol was measured using a validated LC–MS/MS assay with an LLOQ of 3.0 ng/mL (SGS, Cephac Europe, SAS). The concentrations of 6β-hydroxycortisol and cortisol in urine were determined using validated LC–MS/MS assays with an LLOQ of 10.0 ng/mL for 6β-hydroxycortisol and 1.0 ng/mL for cortisol. The ratio of 6β-hydroxycortisol to cortisol was subsequently calculated (SGS, Cephac Europe, SAS). See Supplementary Table 2 for detailed bioanalytical methods for all 3 studies.

[3] = Safety and tolerability, rifampicin study
CYP3A4 [4] = assay: CYP3A4 activity in vivo in midazolam study (probe and endogenous biomarkers); parameters: species or system human
Protocol: Both inhibition and induction of midazolam clearance were investigated.
Similarly, blood and urine samples were taken on days 1, 3, 6, 7, 8, and 9 to measure the levels of 4β-hydroxycholesterol in plasma and the 6β-hydroxycortisol/cortisol ratio in urine, markers of CYP3A4 activity.
as §2

[5] = Midostaurin PK when administered with rifampicin; conditions: for AUC(0-inf) / AUC(0-t) / Cmax / half-life: human, oral; for AUC(0-inf): AUC0–inf; for AUC(0-inf) / AUC(0-t) / Cmax: adjusted geometric mean; for AUC(0-t): AUC0–last; for Cmax: C max; for half-life: t 1/2, adjusted geometric mean
Protocol: These endogenous molecules served as exploratory biomarkers for CYP3A4 activity in vivo [21, 22].
A point estimate and the corresponding 90 % CI for the treatment effect (test vs reference) were calculated. These were anti-logged to obtain the GMR and respective 90 % CI. […] The median difference was estimated with the Hodges–Lehmann estimator and its respective exact two-sided 90 % CI. All formal comparative statistical analyses were performed using SAS software.
as §2

[6] = test system: human serum protein α1-acid glycoprotein (AAG); parameters: method as in PMID 11230495; conditions: cited from earlier work
patients with ASM = conditions: cited from earlier work
[7] = Safety and tolerability, ketoconazole study; type: in vivo, human
Protocol: as §1

CYP3A4 [8] = conditions: patients with ASM, 1–2 months of daily midostaurin dosing; cited from earlier work
[9] = human, plasma, oral, plasma, Ketoconazole + midostaurin arm, n = 18
[10] = human, plasma, oral, plasma, Placebo + midostaurin arm, ketoconazole study, n = 18
[11] = midostaurin 50 mg single dose, ketoconazole 400 mg daily
[12] = rifampicin study: Mido 50 mg + Rifa 600 mg (n = 25) or Mido 50 mg (n = 21)
[13] = plasma, plasma, Placebo + midostaurin arm, rifampicin study, n = 20
[14] = plasma, plasma, Rifampicin + midostaurin arm, n = 20
[15] = phase II, 100 mg twice daily, 26 patients with ASM
[16] = stage 1 analysis, global phase II study, ASM or mast cell leukemia
[17] = ketoconazole study, both arms pooled (N = 47)
[18] = ketoconazole study: Mido 50 mg (n = 20) or Mido 50 mg + Keto 400 mg (n = 27)

SMILES: CO[C@@H]1[C@H](N(C)C(=O)c2ccccc2)C[C@H]2O[C@]1(C)n1c3ccccc3c3c4c(c5c6ccccc6n2c5c31)C(=O)NC4 [Midostaurin]
- free midostaurin concentrations [1]: 0.02 to 1 µM
- major pathway for elimination [1]: Fecal excretion
- period of time-linear accumulation ([1]; daily oral dosing): 3 to 6 days
- time to new plateau of plasma concentrations ([1]; daily oral dosing): 2–3 weeks
- mean apparent volume of distribution ([1]; healthy volunteers): 111 L
- time of peak plasma concentrations postdose ([1]; human, in vivo, po): 1 to 3 h
- dose proportionality of C max and AUC ([1]; single-dose administration): increased proportionally with dose following single-dose administration of midostaurin between 25- and 50-mg doses but under proportionally between 50- and 100-mg doses
- fraction of midostaurin metabolized by CYP3A4 (FmCYP3A4) ([2]; 1 − AUCinf (without ketoconazole)/AUCinf (with ketoconazole)): 91%
- DDI classification (PhRMA proposal for drugs biotransformed via CYP3A4) ([2]; co-administration with ketoconazole): strong
- elimination t 1/2 in the presence of ketoconazole ([2]; compared with placebo): prolonged
- AUC(0-inf) ([2]; human, plasma, oral, plasma, Ketoconazole + midostaurin arm (midostaurin 50 mg once, ketoconazole 400 mg daily), n = 18): 206000 ng·h/mL
- AUC(0-inf) ([2]; human, plasma, oral, plasma, Placebo + midostaurin arm (midostaurin 50 mg once), ketoconazole study, n = 18): 19800 ng·h/mL
- Cmax [2, 9]: 2890 ng/mL
- Cmax [2, 10]: 1590 ng/mL
- half-life [2, 9]: 90.6 h
- half-life [2, 10]: 23.3 h
- Tmax ([2]; human, plasma, oral, t max, median, plasma, Ketoconazole + midostaurin arm, n = 18): 1.5 h
- t max, Hodges–Lehmann estimate of median difference (90 % distribution-free CI) ([2]; ketoconazole + midostaurin vs placebo + midostaurin): 0.5 (0, 0.5) h
- increase in AUC (exposure) with ketoconazole compared with placebo [2, 11]: more than tenfold; also recorded: tenfold
- increase in C max with ketoconazole compared with placebo [2, 11]: ≈ 1.8 fold and 1.8 fold
- diarrhea ([3]; rifampicin study, by arm): 33%
- nausea ([3]; rifampicin study, by arm): 38%
- participants who experienced an AE ([3]; rifampicin study, by arm): 62%
- Adverse event: Abdominal distension [3, 12]: 0 n (%)
- Adverse event: Any preferred term [3, 12]: 13 (61.9) n (%)
- Adverse event: Back pain [3, 12]: 1 (4.8) n (%)
- Adverse event: Chromaturia [3, 12]: 0 n (%)
- Adverse event: Cough [3, 12]: 0 n (%)
- Adverse event: Diarrhea [3, 12]: 7 (33.3) n (%)
- Adverse event: Discolored feces [3, 12]: 0 n (%)
- Adverse event: Dizziness [3, 12]: 0 n (%)
- Adverse event: Dry skin [3, 12]: 0 n (%)
- Adverse event: Dyspepsia [3, 12]: 0 n (%)
- Adverse event: Feeling cold [3, 12]: 0 n (%)
- Adverse event: Feeling hot [3, 12]: 0 n (%)
- Adverse event: Flatulence [3, 12]: 1 (4.8) n (%)
- Adverse event: Headache [3, 12]: 1 (4.8) n (%)
- Adverse event: Hot flush [3, 12]: 0 n (%)
- Adverse event: Nasopharyngitis [3, 12]: 2 (9.5) n (%)
- Adverse event: Nausea [3, 12]: 8 (38.1) n (%)
- Adverse event: Palpitations [3, 12]: 0 n (%)
- Adverse event: Pharyngolaryngeal pain [3, 12]: 0 n (%)
- Adverse event: Restlessness [3, 12]: 0 n (%)
- Adverse event: Rhinitis [3, 12]: 0 n (%)
- Adverse event: Sleep disorder [3, 12]: 0 n (%)
- Adverse event: Somnolence [3, 12]: 0 n (%)
- Adverse event: Vomiting [3, 12]: 1 (4.8) n (%)
- inhibition or induction of CYP3A4 in vivo (CYP3A4 [4]; humans, single dose 100 mg and 50 mg twice daily): neither an inhibitor nor inducer; also recorded: neither a CYP3A4 inhibitor nor a CYP3A4 inducer
- effect on concentrations of midazolam and 1′-hydroxymidazolam (CYP3A4 [4]; single or multiple doses of midostaurin): did not appreciably affect
- increase in geometric mean of apparent clearance with rifampicin ([5]; compared with midostaurin administered alone): 16.9 fold
- AUC(0-inf) ([5]; plasma, plasma, Placebo + midostaurin arm (midostaurin 50 mg once), rifampicin study, n = 20): 22800 ng·h/mL
- AUC(0-inf) ([5]; plasma, plasma, Rifampicin + midostaurin arm (midostaurin 50 mg once, rifampicin 600 mg daily), n = 20): 1350 ng·h/mL
- AUC(0-t) [5, 13]: 22000 ng·h/mL
- AUC(0-t) [5, 14]: 1230 ng·h/mL
- Cmax [5, 13]: 1620 ng/mL
- Cmax [5, 14]: 440 ng/mL
- half-life [5, 13]: 23 h
- half-life [5, 14]: 5.14 h
- decrease in exposure by induction of CYP3A4 by rifampicin ([5]; midostaurin 50 mg single dose, rifampicin 600 mg daily): more than tenfold
- t max, median ([5]; plasma, Placebo + midostaurin arm, rifampicin study, n = 20): 1.02 h
- bound to AAG [6]: 88–98%
- response rate according to Valent criteria (patients with ASM; phase II investigator-initiated study, 100 mg twice daily, 26 patients with ASM): 69%
- good partial responses (number of patients) (patients with ASM; [15]): 5
- incomplete remissions (number of patients) (patients with ASM; [15]): 6
- major responses (number of patients) (patients with ASM; [15]): 10
- minor partial responses (number of patients) (patients with ASM; [15]): 3
- pure clinical responses (number of patients) (patients with ASM; [15]): 4
- major response (patients with ASM; [16]): 53%
- overall response rate (patients with ASM; [16]): 60%
- tolerability ([7]; all 3 studies, single agent or in combination, healthy volunteers): generally well tolerated
- intensity of AEs ([7]; ketoconazole study, both arms pooled): mild
- participants who discontinued the study because of AEs [7, 17]: 15%
- serious AEs [7, 17]: no serious AEs
- Adverse event: Abdominal distension [7, 18]: 0 n (%)
- Adverse event: Any preferred term [7, 18]: 13 (65.0) n (%)
- Adverse event: Back pain [7, 18]: 0 n (%)
- Adverse event: Chromaturia [7, 18]: 0 n (%)
- Adverse event: Cough [7, 18]: 0 n (%)
- Adverse event: Diarrhea [7, 18]: 4 (20.0) n (%)
- Adverse event: Discolored feces [7, 18]: 0 n (%)
- Adverse event: Dizziness [7, 18]: 5 (25.0) n (%)
- Adverse event: Dry skin [7, 18]: 0 n (%)
- Adverse event: Dyspepsia [7, 18]: 0 n (%)
- Adverse event: Feeling cold [7, 18]: 2 (10.0) n (%)
- Adverse event: Feeling hot [7, 18]: 0 n (%)
- Adverse event: Flatulence [7, 18]: 0 n (%)
- Adverse event: Headache [7, 18]: 2 (10.0) n (%)
- Adverse event: Hot flush [7, 18]: 0 n (%)
- Adverse event: Nasopharyngitis [7, 18]: 0 n (%)
- Adverse event: Nausea [7, 18]: 7 (35.0) n (%)
- Adverse event: Palpitations [7, 18]: 0 n (%)
- Adverse event: Pharyngolaryngeal pain [7, 18]: 0 n (%)
- Adverse event: Restlessness [7, 18]: 0 n (%)
- Adverse event: Rhinitis [7, 18]: 1 (5.0) n (%)
- Adverse event: Sleep disorder [7, 18]: 0 n (%)
- Adverse event: Somnolence [7, 18]: 0 n (%)
- Adverse event: Vomiting [7, 18]: 1 (5.0) n (%)
- change in level of endogenous CYP3A4 biomarker 4-β-hydroxycholesterol in plasma (CYP3A4 [8]): significant increase
